Article PMC2615640 (Chemical research in toxicology, 2008)
Entries after “also recorded” stand apart in the source; their conditions may differ. Marks after values point to notes of the source that are not given here.

How the values were obtained:
[1] = LC-MS-MS analysis of GSH conjugates; conditions: 1 mM GSH, pH 8.0, 1 h, room temperature
[2] = system: antioxidant response element (ARE); assay: ARE-luciferase activity assay in HepG2-ARE-C8 cells; type: cell-based; conditions: 24 h treatment
[3] = dry state, 24 h at room temperature, from 98.6% freshly isolated; cited from earlier work
[4] = Crystal violet cytotoxicity assay; type: cell-based; conditions: mouse, Hepa1c1c7 murine hepatoma cells
DPPH assay = type: biochemical; conditions: for DPPH % FRS ± SD: pure compounds at screening concentration of 100 μM
[5] = system: NAD(P)H:quinone oxidoreductase 1 (NQO1); assay: In vitro NQO1 induction assay in Hepa-1c1c7 cells; conditions: Hepa1c1c7 cells; for NQO1 assay CD ± SD (concentration required for two-fold induction of NQO1): pure compounds, 48 h
[6] = p.o. dose 500 mg/kg, rats; cited from earlier work
[7] = system: NAD(P)H:quinone oxidoreductase 1 (NQO1); conditions: cited from earlier work

SMILES	DPPH % FRS ± SD (DPPH assay)	NQO1 inducing activity (in words) [5]	NQO1 assay CD ± SD (concentration required for two-fold induction of NQO1) [5]	further results
CCC/C=C1\OC(=O)C2=C1CCC=C2 [Compound 1, Z-ligustilide]	< 50%	respectable NQO1 inducing activities		covalent modification of GSH / GSH conjugate formation [1]: covalently modified GSH; also recorded: formed GSH conjugates; ARE-luciferase reporter activity [2]: increased ARE-luciferase reporter activity in a dose-dependent manner; also recorded: induced ARE reporter luciferase activity in a dose-dependent manner; purity (GC-MS) after degradation [3]: 58.1%; IC50 at 48 h [4]: 71.2 ± 4.1 µM; GSH conjugate in plasma [6]: a GSH conjugate with monooxygenated ligustilide (mass 206) could be detected in the plasma
CCC/C=C1\OC(=O)c2ccccc21 [Compound 2, Z-butylidenephthalide]	< 50%	did not induce NQO1 activity	> 20 µM	IC50 at 48 h [4]: > 20 µM
CCC/C=C1\OC(=O)C2=C1CC[C@@H](O)[C@@H]2O [Compound 3, senkyunolide I]	< 50%	weak NQO1 inducing properties	17.9 ± 0.6 µM	
CCC/C=C1\OC(=O)C2=CC3CCC21[C@]1(OC(=O)c2ccccc21)[C@@H]3CCC (stereo partly shown) [Compound 4, ansaspirolide]	< 50%	potent inducing properties	0.9 ± 0.1 µM	CI (Chemopreventive Index: IC50/CD) [5]: 3
CCC/C=C1\OC(=O)C23C=CCCC12C1(OC(=O)c2ccccc21)C3CCC (stereo not shown) [Compound 5, sinaspirolide]	< 50%	did not show any NQO1 inducing activity	> 20 µM	
COc1cc(/C=C/C(=O)OCC(O)C(OC)c2ccc(O)c(OC)c2)ccc1O (stereo not shown) [Compound 6, angeliferulate]		respectable NQO1 inducing activities; also recorded: high NQO1 inducing properties	7.5 ± 0.2 µM	
COc1cc(/C=C/C(=O)OCCc2ccc(O)cc2)ccc1O [Compound 7, p-hydroxyphenethyl trans-ferulate]	65 ± 1%	respectable NQO1 inducing activities; also recorded: high NQO1 inducing properties	2.4 ± 0.3 ^f μM	radical scavenging activity (in words) (DPPH assay; DPPH): moderate radical scavenging activity
C[S+]([O-])CCCCN=C=S (stereo not shown) [sulforaphane]				CI (chemopreventive index) [7]: 26
